Measurements: PubChem BioAssay (NCI)
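Grown in 96-well plates, cells were treated for 48 hours with each compound at five concentrations. Insufficient inhibition: endpoint recorded as highest concentration tested. GI50 = concentration required for 50% inhibition of growth. At the TGI there is no net growth.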

Experiments:
Assay in all cases: growth of human tumour cells (NCI), 48 h
RXF 393 renal = system: RXF 393 renal
HCT-116 colon = system: HCT-116 colon
SN12C renal = system: SN12C renal
CCRF-CEM leukemia = system: CCRF-CEM leukemia
OVCAR-3 ovarian = system: OVCAR-3 ovarian
SNB-19 CNS = system: SNB-19 CNS
UO-31 renal = system: UO-31 renal
OVCAR-5 ovarian = system: OVCAR-5 ovarian
OVCAR-4 ovarian = system: OVCAR-4 ovarian
HL-60(TB) leukemia = system: HL-60(TB) leukemia

COC(=O)/C(C#N)=C1\N=NNN1CCCN1CCOCC1
TGI (RXF 393 renal): > 100 µM | TGI (HCT-116 colon): > 100 µM | TGI (SN12C renal): > 100 µM | TGI (CCRF-CEM leukemia): > 100 µM | TGI (OVCAR-3 ovarian): > 100 µM | TGI (SNB-19 CNS): > 100 µM | TGI (UO-31 renal): > 100 µM

COc1cc2ccn3c4cc(OC)c(OC)cc4cc3c2cc1OC
TGI (OVCAR-5 ovarian): > 100 µM | TGI (HCT-116 colon): > 100 µM | TGI (OVCAR-4 ovarian): > 100 µM | TGI (SN12C renal): > 100 µM | TGI (HL-60(TB) leukemia): > 100 µM | TGI (CCRF-CEM leukemia): > 100 µM | TGI (OVCAR-3 ovarian): > 100 µM | TGI (SNB-19 CNS): > 100 µM | TGI (UO-31 renal): > 100 µM

CC1OC(=O)N(CCCC=C2SCCCS2)C1=O (stereo not given)
TGI (RXF 393 renal): > 100 µM | TGI (OVCAR-5 ovarian): > 100 µM | TGI (HCT-116 colon): > 100 µM | TGI (OVCAR-4 ovarian): > 100 µM | TGI (SN12C renal): > 100 µM | TGI (CCRF-CEM leukemia): > 100 µM | TGI (OVCAR-3 ovarian): > 100 µM | TGI (SNB-19 CNS): > 100 µM | TGI (UO-31 renal): > 100 µM

CC(C)OP(=O)(CP(=O)(OC(C)C)OC(C)C)OC(C)C.[CH3][Sn]([Br])([Br])[Br]
GI50 (RXF 393 renal): > 100 µM | TGI (RXF 393 renal): > 100 µM | GI50 (OVCAR-5 ovarian): > 100 µM | TGI (OVCAR-5 ovarian): > 100 µM | GI50 (SN12C renal): > 100 µM | TGI (SN12C renal): > 100 µM | GI50 (HL-60(TB) leukemia): > 100 µM | TGI (HL-60(TB) leukemia): > 100 µM | GI50 (CCRF-CEM leukemia): > 100 µM | TGI (CCRF-CEM leukemia): > 100 µM | GI50 (OVCAR-3 ovarian): > 100 µM | TGI (OVCAR-3 ovarian): > 100 µM | GI50 (SNB-19 CNS): > 100 µM | TGI (SNB-19 CNS): > 100 µM | GI50 (UO-31 renal): > 100 µM | TGI (UO-31 renal): > 100 µM

CC[C@@]1(OC(=O)CN)C(=O)OCc2c1cc1n(c2=O)Cc2cc3cc(N)ccc3nc2-1
GI50 (RXF 393 renal): 0.044 µM | TGI (RXF 393 renal): 0.371 µM | GI50 (OVCAR-5 ovarian): 0.15 µM | GI50 (OVCAR-4 ovarian): 0.363 µM | TGI (OVCAR-4 ovarian): 2.7 µM | GI50 (SN12C renal): < 0.01 µM | TGI (SN12C renal): > 100 µM | GI50 (CCRF-CEM leukemia): < 0.01 µM | GI50 (OVCAR-3 ovarian): 0.181 µM | TGI (OVCAR-3 ovarian): 0.848 µM | GI50 (SNB-19 CNS): < 0.01 µM | TGI (SNB-19 CNS): > 100 µM | GI50 (UO-31 renal): < 0.0113 µM

O=C1c2ccccc2-c2cc3ccccc3c(=O)n21
TGI (OVCAR-5 ovarian): > 100 µM | TGI (HCT-116 colon): > 100 µM | TGI (SN12C renal): > 100 µM | TGI (CCRF-CEM leukemia): > 100 µM | TGI (OVCAR-3 ovarian): > 100 µM | TGI (SNB-19 CNS): > 100 µM | TGI (UO-31 renal): > 100 µM

Cc1nnc([S-])s1.[Au+].c1ccc([PH+](c2ccccc2)c2ccccc2)cc1
GI50 (RXF 393 renal): 1.26 µM | TGI (RXF 393 renal): 2.53 µM | GI50 (OVCAR-5 ovarian): 1.7 µM | TGI (OVCAR-5 ovarian): 3.13 µM | GI50 (HL-60(TB) leukemia): 1.85 µM | TGI (HL-60(TB) leukemia): 5.51 µM | GI50 (CCRF-CEM leukemia): 2.04 µM | TGI (CCRF-CEM leukemia): 6.91 µM | GI50 (OVCAR-3 ovarian): 1.73 µM | TGI (OVCAR-3 ovarian): 3.14 µM | GI50 (SNB-19 CNS): 1.6 µM | TGI (SNB-19 CNS): 2.98 µM | GI50 (UO-31 renal): 1.64 µM | TGI (UO-31 renal): 2.99 µM

O=c1oc(-c2ccc(O)c(O)c2)cc2cc(O)cc(O)c12
GI50 (RXF 393 renal): 35.9 µM | TGI (RXF 393 renal): > 100 µM | GI50 (OVCAR-5 ovarian): 36.7 µM | TGI (OVCAR-5 ovarian): > 100 µM | GI50 (HCT-116 colon): 29.8 µM | TGI (HCT-116 colon): > 100 µM | GI50 (OVCAR-4 ovarian): 76.6 µM | TGI (OVCAR-4 ovarian): > 100 µM | GI50 (SN12C renal): 43 µM | TGI (SN12C renal): > 100 µM | GI50 (CCRF-CEM leukemia): 3.39 µM | TGI (CCRF-CEM leukemia): > 100 µM | GI50 (OVCAR-3 ovarian): 35.3 µM | TGI (OVCAR-3 ovarian): > 100 µM | GI50 (SNB-19 CNS): 56.3 µM | TGI (SNB-19 CNS): > 100 µM | GI50 (UO-31 renal): 18.5 µM | TGI (UO-31 renal): > 100 µM

C/C(=N\NS(=O)(=O)c1ccc(C)cc1)c1ccc[n+]([O-])n1
TGI (OVCAR-5 ovarian): > 100 µM | TGI (HCT-116 colon): > 100 µM | TGI (OVCAR-4 ovarian): > 100 µM | TGI (SN12C renal): > 100 µM | TGI (HL-60(TB) leukemia): 91 µM | TGI (CCRF-CEM leukemia): 82.5 µM | TGI (OVCAR-3 ovarian): > 100 µM | TGI (SNB-19 CNS): > 100 µM | TGI (UO-31 renal): > 100 µM

O=C(/C=C/N1CCN(c2cccc(C(F)(F)F)c2)CC1)c1ccc(Cl)cc1Cl
GI50 (RXF 393 renal): 30.9 µM | TGI (RXF 393 renal): 73.4 µM | GI50 (OVCAR-5 ovarian): 30.6 µM | TGI (OVCAR-5 ovarian): > 100 µM | GI50 (HCT-116 colon): 23.6 µM | TGI (HCT-116 colon): 50.2 µM | GI50 (OVCAR-4 ovarian): 25.1 µM | TGI (OVCAR-4 ovarian): 53.2 µM | GI50 (SN12C renal): 21.3 µM | TGI (SN12C renal): 40.6 µM | GI50 (CCRF-CEM leukemia): 49.6 µM | TGI (CCRF-CEM leukemia): > 100 µM | GI50 (OVCAR-3 ovarian): 2.44 µM | TGI (OVCAR-3 ovarian): 19.3 µM | GI50 (SNB-19 CNS): 47.7 µM | TGI (SNB-19 CNS): > 100 µM | GI50 (UO-31 renal): 31.3 µM | TGI (UO-31 renal): > 100 µM

COc1cc(C(c2cc3c(cc2O)OCO3)N2CCCC2)cc(OC)c1OC (stereo not given)
TGI (OVCAR-5 ovarian): 89.7 µM | TGI (HCT-116 colon): 29.8 µM | TGI (OVCAR-4 ovarian): 34.2 µM | TGI (SN12C renal): 45.9 µM | TGI (HL-60(TB) leukemia): 6.06 µM | TGI (CCRF-CEM leukemia): 5.95 µM | TGI (OVCAR-3 ovarian): 34.9 µM | TGI (SNB-19 CNS): 38.2 µM | TGI (UO-31 renal): 28.1 µM

O=C1[C@H]2C(c3ccccc3)=NN(C(=O)c3ccccc3)[C@H]2C(=O)N1c1ccccc1
TGI (RXF 393 renal): > 100 µM | TGI (HCT-116 colon): > 100 µM | TGI (SN12C renal): > 100 µM | TGI (CCRF-CEM leukemia): > 100 µM | TGI (OVCAR-3 ovarian): > 100 µM | TGI (SNB-19 CNS): > 100 µM | TGI (UO-31 renal): > 100 µM

CCOC(=O)/C=C1\Nc2ccccc2C(c2ccccc2)=NC1OC(C)=O (stereo not given)
TGI (HCT-116 colon): > 100 µM | TGI (OVCAR-4 ovarian): > 100 µM | TGI (SN12C renal): > 100 µM | TGI (HL-60(TB) leukemia): > 100 µM | TGI (CCRF-CEM leukemia): > 100 µM | TGI (OVCAR-3 ovarian): > 100 µM | TGI (UO-31 renal): > 100 µM

CC(CC(=O)O)(CC(=O)O)C(=O)O
TGI (RXF 393 renal): > 100 µM | TGI (OVCAR-5 ovarian): > 100 µM | TGI (HCT-116 colon): > 100 µM | TGI (OVCAR-4 ovarian): > 100 µM | TGI (SN12C renal): > 100 µM | TGI (OVCAR-3 ovarian): > 100 µM | TGI (SNB-19 CNS): > 100 µM | TGI (UO-31 renal): > 100 µM

Cc1ccc(NC(=O)CCC(=O)C2CC(=O)CC/C2=N\NC(=O)c2cc3ccccc3cc2O)cc1C (stereo not given)
TGI (OVCAR-5 ovarian): 56.8 µM | TGI (HCT-116 colon): > 100 µM | TGI (OVCAR-4 ovarian): 51.4 µM | TGI (SN12C renal): > 100 µM | TGI (HL-60(TB) leukemia): 29.9 µM | TGI (CCRF-CEM leukemia): 58.3 µM | TGI (OVCAR-3 ovarian): 45.6 µM | TGI (SNB-19 CNS): > 100 µM | TGI (UO-31 renal): 59.3 µM
